Where two headings read alike, the source gives them in different places.
Tests used:
[1] = rat, in vivo; for % Enhancement in bioavailability, Carum carvi (Cc) Extr.: 30 mg/kg; for % Enhancement in bioavailability, BE from Zingiber officinale: 35 mg/kg
Description: (§1) Bioenhancers of Zingiber officinale, mean 50% alcoholic extract of fresh ginger. The doses remain unchanged whether the bioenhancers are used alone or in combination.
(§2) The amount of bioenhancers used are given below: • i. from Carum carvi: extract 30 mg/kg body weight (rats); Fraction No. 1: 15 mg/kg body weight (rats) • ii. piperine 8 mg/kg body weight (rats) • iii. Zingiber officinale: 35 mg/kg body weight (rats) • The drug used was rifampicin (40 mg/kg). The drug alone or in combination with the bioenhancers was administered to rats as given below: • Group 1: control • Group 2: Rifampicin alone • Group 3: bioenhancer alone • Group 4: Rifampicin with Carum carvi bioenhancer
(§3) Blood from the control/treated animals at predetermined intervals (0-24 hours) (total 14 timings). Rifampicin was extracted from the blood (plasma) using dichloromethane. […] The mobile phase was phosphate buffer:acetonitrile in a ratio of 40:60, and a flow rate of 1.0 ml/min.

[2] = Enhancement of bioavailability of drugs given to rats with bioenhancers (plasma drug level by HPLC); conditions: for % Enhancement in bioavailability, BE from Zingiber officinale: drug with Zingiber officinale 50% alcoholic extract of fresh ginger 35 mg/kg; for % Enhancement in bioavailability, BE from Zingiber officinale / % Enhancement in bioavailability, Piperine as BE / % Enhancement in bioavailability, Carum carvi + Zingiber officinale / % Enhancement in bioavailability, Carum carvi + Piperine: drug dose as in row; for % Enhancement in bioavailability, Piperine as BE: drug with piperine 8 mg/kg; for % Enhancement in bioavailability, Carum carvi (Cc) Frac 1.: nutraceutical with Carum carvi Fraction No. 1 15 mg/kg; for % Enhancement in bioavailability, Carum carvi + Zingiber officinale, Frac 1. (Cc): nutraceutical with Carum carvi Fraction No. 1 and Zingiber officinale; for % Enhancement in bioavailability, Carum carvi + piperine, Frac 1. (Cc): nutraceutical with Carum carvi Fraction No. 1 and piperine; for % Enhancement in bioavailability, Carum carvi (Cc) Extr.: nutraceutical with Carum carvi extract 30 mg/kg; for % Enhancement in bioavailability, Carum carvi + Zingiber officinale, Extr. (Cc): nutraceutical with Carum carvi extract and Zingiber officinale; for % Enhancement in bioavailability, Carum carvi + piperine, Extr. (Cc): nutraceutical with Carum carvi extract and piperine; for % Enhancement in bioavailability, BE from Carum carvi: drug with Carum carvi bioenhancer (aqueous or 50% alcoholic extract 30 mg/kg or Fraction No. 1 15 mg/kg), drug dose mg/kg; for % Enhancement in bioavailability, Carum carvi + Zingiber officinale: drug with Carum carvi bioenhancer and Zingiber officinale 35 mg/kg; for % Enhancement in bioavailability, Carum carvi + Piperine: drug with Carum carvi bioenhancer and piperine 8 mg/kg
Description: as §1, §2, §3

Molecule: CC(C)C[C@H](N)C(=O)O [Leucine]
- % Enhancement in bioavailability, Carum carvi + Zingiber officinale, Extr. (Cc) [1]: 35%
- % Enhancement in bioavailability, Carum carvi + Zingiber officinale, Frac 1. (Cc) [1]: 40%
- % Enhancement in bioavailability, Carum carvi + piperine, Extr. (Cc) [1]: 29%
- % Enhancement in bioavailability, Carum carvi + piperine, Frac 1. (Cc) [1]: 32%
- % Enhancement in bioavailability, Carum carvi (Cc) Extr. [1]: 19%
- % Enhancement in bioavailability, BE from Zingiber officinale [1]: 24%

Molecule: CCn1cc(C(=O)O)c(=O)c2cc(F)c(N3CCNCC3)cc21 [Norfloxacin]
- % Enhancement in bioavailability, BE from Carum carvi [1]: 55%
- % Enhancement in bioavailability, Carum carvi + Piperine [1]: 65%
- % Enhancement in bioavailability, Carum carvi + Zingiber officinale [1]: 60%
- % Enhancement in bioavailability, BE from Zingiber officinale [1]: Nil

Molecule: CC[C@@H](CO)NCCN[C@@H](CC)CO [Ethambutol]
- % Enhancement in bioavailability, BE from Carum carvi [1]: Nil
- % Enhancement in bioavailability, Carum carvi + Piperine [1]: nil
- % Enhancement in bioavailability, Carum carvi + Zingiber officinale [1]: nil
- % Enhancement in bioavailability, BE from Zingiber officinale [1]: Nil

Molecule: NCCCC[C@H](N)C(=O)O [Lysine]
- % Enhancement in bioavailability, Carum carvi + Zingiber officinale, Extr. (Cc) [1]: 39%
- % Enhancement in bioavailability, Carum carvi + Zingiber officinale, Frac 1. (Cc) [1]: 43%
- % Enhancement in bioavailability, Carum carvi + piperine, Extr. (Cc) [1]: 33%
- % Enhancement in bioavailability, Carum carvi + piperine, Frac 1. (Cc) [1]: 38%
- % Enhancement in bioavailability, Carum carvi (Cc) Extr. [1]: 26%
- % Enhancement in bioavailability, BE from Zingiber officinale [1]: 19%

Molecule: C[C@@H]1O[C@@H](OC[C@H]2O[C@@H](Oc3c(-c4ccc(O)c(O)c4)oc4cc(O)cc(O)c4c3=O)[C@H](O)[C@@H](O)[C@@H]2O)[C@H](O)[C@H](O)[C@H]1O [Rutin]
- % Enhancement in bioavailability, Carum carvi + Zingiber officinale, Extr. (Cc) [1]: 34%
- % Enhancement in bioavailability, Carum carvi + Zingiber officinale, Frac 1. (Cc) [1]: 42%
- % Enhancement in bioavailability, Carum carvi + piperine, Extr. (Cc) [1]: 36%
- % Enhancement in bioavailability, Carum carvi + piperine, Frac 1. (Cc) [1]: 40%
- % Enhancement in bioavailability, Carum carvi (Cc) Extr. [1]: 34%
- % Enhancement in bioavailability, BE from Zingiber officinale [1]: 42%

Molecule: CC(C)[C@H](N)C(=O)O [Valine]
- % Enhancement in bioavailability, Carum carvi + Zingiber officinale, Extr. (Cc) [1]: 32%
- % Enhancement in bioavailability, Carum carvi + Zingiber officinale, Frac 1. (Cc) [1]: 38%
- % Enhancement in bioavailability, Carum carvi + piperine, Extr. (Cc) [1]: 22%
- % Enhancement in bioavailability, Carum carvi + piperine, Frac 1. (Cc) [1]: 29%
- % Enhancement in bioavailability, Carum carvi (Cc) Extr. [1]: 16%
- % Enhancement in bioavailability, BE from Zingiber officinale [1]: 21%

Molecule: Cc1onc(-c2ccccc2Cl)c1C(=O)N[C@@H]1C(=O)N2[C@@H]1SC(C)(C)[C@@H]2C(=O)O [Cloxacillin]
- % Enhancement in bioavailability, BE from Carum carvi [1]: 110%
- % Enhancement in bioavailability, Carum carvi + Piperine [1]: 95%
- % Enhancement in bioavailability, Carum carvi + Zingiber officinale [1]: 110%
- % Enhancement in bioavailability, BE from Zingiber officinale [1]: 76%

Molecule: CC[C@H]1OC(=O)[C@H](C)[C@@H](O[C@H]2C[C@@](C)(OC)[C@@H](O)[C@H](C)O2)[C@H](C)[C@@H](O[C@@H]2O[C@H](C)C[C@H](N(C)C)[C@H]2O)[C@](C)(O)C[C@@H](C)CN(C)[C@H](C)[C@@H](O)[C@]1(C)O [Azithromycin]
- % Enhancement in bioavailability, BE from Carum carvi [1]: 55%
- % Enhancement in bioavailability, Carum carvi + Piperine [1]: 90%
- % Enhancement in bioavailability, Carum carvi + Zingiber officinale [1]: 86%
- % Enhancement in bioavailability, BE from Zingiber officinale [1]: 78%

Molecule: [Cu] [Copper]
- % Enhancement in bioavailability, Carum carvi + Zingiber officinale, Extr. (Cc) [1]: Nil
- % Enhancement in bioavailability, Carum carvi + Zingiber officinale, Frac 1. (Cc) [1]: Nil
- % Enhancement in bioavailability, Carum carvi + piperine, Extr. (Cc) [1]: nil
- % Enhancement in bioavailability, Carum carvi + piperine, Frac 1. (Cc) [1]: Nil
- % Enhancement in bioavailability, Carum carvi (Cc) Extr. [1]: nil
- % Enhancement in bioavailability, BE from Zingiber officinale [1]: nil

Molecule: C=CC[C@@H]1/C=C(\C)C[C@H](C)C[C@H](OC)[C@H]2O[C@@](O)(C(=O)C(=O)N3CCCC[C@H]3C(=O)O[C@H](/C(C)=C/[C@@H]3CC[C@@H](O)[C@H](OC)C3)[C@H](C)[C@@H](O)CC1=O)[C@H](C)C[C@@H]2OC [Tacrolimus]
- % Enhancement in bioavailability, BE from Carum carvi [1]: 90%
- % Enhancement in bioavailability, Carum carvi + Piperine [1]: 95%
- % Enhancement in bioavailability, Carum carvi + Zingiber officinale [1]: 114%
- % Enhancement in bioavailability, BE from Zingiber officinale [1]: 75%

Molecule: CC1=C(C(=O)O)N2C(=O)[C@@H](NC(=O)[C@H](N)c3ccc(O)cc3)[C@H]2SC1 [Cefadroxil]
- % Enhancement in bioavailability, BE from Carum carvi [1]: 67%
- % Enhancement in bioavailability, Carum carvi + Piperine [1]: 95%
- % Enhancement in bioavailability, Carum carvi + Zingiber officinale [1]: 85%
- % Enhancement in bioavailability, BE from Zingiber officinale [1]: 68%

Molecule: Vit E
- % Enhancement in bioavailability, BE from Zingiber officinale [2]: Nil
- % Enhancement in bioavailability, Piperine as BE [2]: Nil
- % Enhancement in bioavailability, Carum carvi (Cc) Frac 1. [2]: Nil
- % Enhancement in bioavailability, Carum carvi + Zingiber officinale, Frac 1. (Cc) [2]: Nil
- % Enhancement in bioavailability, Carum carvi + piperine, Frac 1. (Cc) [2]: Nil
- % Enhancement in bioavailability, Carum carvi (Cc) Extr. [2]: Nil
- % Enhancement in bioavailability, Carum carvi + Zingiber officinale, Extr. (Cc) [2]: Nil
- % Enhancement in bioavailability, Carum carvi + piperine, Extr. (Cc) [2]: Nil

Molecule: Cn1c(=O)c2[nH]cnc2n(C)c1=O [Theophylline]
- % Enhancement in bioavailability, BE from Carum carvi [2]: 70%
- % Enhancement in bioavailability, Carum carvi + Zingiber officinale [2]: 89%
- % Enhancement in bioavailability, Carum carvi + Piperine [2]: 79%
- % Enhancement in bioavailability, BE from Zingiber officinale [2]: 76%
- % Enhancement in bioavailability, Piperine as BE [2]: 65%

Molecule: CS(=O)(=O)c1ccc(C2=C(c3ccccc3)C(=O)OC2)cc1 [Rofecoxib]
- % Enhancement in bioavailability, BE from Carum carvi [2]: 75%
- % Enhancement in bioavailability, Carum carvi + Zingiber officinale [2]: 80%
- % Enhancement in bioavailability, Carum carvi + Piperine [2]: 70%
- % Enhancement in bioavailability, BE from Zingiber officinale [2]: Nil
- % Enhancement in bioavailability, Piperine as BE [2]: nil

Molecule: CN/C(=N/CCSCc1nc[nH]c1C)NC#N [Cimetidine]
- % Enhancement in bioavailability, BE from Carum carvi [2]: 72%
- % Enhancement in bioavailability, Carum carvi + Zingiber officinale [2]: 100%
- % Enhancement in bioavailability, Carum carvi + Piperine [2]: 84%
- % Enhancement in bioavailability, BE from Zingiber officinale [2]: 98%
- % Enhancement in bioavailability, Piperine as BE [2]: nil

Molecule: O=c1[nH]cc(F)c(=O)[nH]1 [5-Fluorouracil]
- % Enhancement in bioavailability, BE from Carum carvi [2]: 90%
- % Enhancement in bioavailability, Carum carvi + Zingiber officinale [2]: 100%
- % Enhancement in bioavailability, Carum carvi + Piperine [2]: 110%
- % Enhancement in bioavailability, BE from Zingiber officinale [2]: 110%
- % Enhancement in bioavailability, Piperine as BE [2]: 87%

Molecule: COc1cccc2c1C(=O)c1c(O)c3c(c(O)c1C2=O)C[C@@](O)(C(=O)CO)C[C@@H]3O[C@H]1C[C@H](N)[C@H](O)[C@H](C)O1 [Dauxorubicin]
- % Enhancement in bioavailability, BE from Carum carvi [2]: Nil
- % Enhancement in bioavailability, Carum carvi + Zingiber officinale [2]: 69%
- % Enhancement in bioavailability, Carum carvi + Piperine [2]: 70%
- % Enhancement in bioavailability, BE from Zingiber officinale [2]: 72%
- % Enhancement in bioavailability, Piperine as BE [2]: 68%

Molecule: CO/N=C(\C(=O)N[C@@H]1C(=O)N2C(C(=O)O)=C(CSc3nc(=O)c(O)nn3C)CS[C@H]12)c1csc(N)n1 [Cefetrioxone]
- % Enhancement in bioavailability, BE from Carum carvi [2]: 72%
- % Enhancement in bioavailability, Carum carvi + Zingiber officinale [2]: 75%
- % Enhancement in bioavailability, Carum carvi + Piperine [2]: 78%
- % Enhancement in bioavailability, BE from Zingiber officinale [2]: Nil
- % Enhancement in bioavailability, Piperine as BE [2]: Nil

Molecule: Cc1nnc2n1-c1ccc(Cl)cc1C(c1ccccc1)=NC2 [Alprazolam]
- % Enhancement in bioavailability, BE from Carum carvi [2]: Nil
- % Enhancement in bioavailability, Carum carvi + Zingiber officinale [2]: 80%
- % Enhancement in bioavailability, Carum carvi + Piperine [2]: 70%
- % Enhancement in bioavailability, BE from Zingiber officinale [2]: 76%
- % Enhancement in bioavailability, Piperine as BE [2]: 65%

Molecule: Cc1cn([C@H]2C[C@H](N=[N+]=[N-])[C@@H](CO)O2)c(=O)[nH]c1=O [Zidovudine]
- % Enhancement in bioavailability, BE from Carum carvi [2]: 92%
- % Enhancement in bioavailability, Carum carvi + Zingiber officinale [2]: 87%
- % Enhancement in bioavailability, Carum carvi + Piperine [2]: 95%
- % Enhancement in bioavailability, BE from Zingiber officinale [2]: 105%
- % Enhancement in bioavailability, Piperine as BE [2]: 140%

Molecule: [K+] [Potassium]
- % Enhancement in bioavailability, BE from Zingiber officinale [2]: nil
- % Enhancement in bioavailability, Piperine as BE [2]: nil
- % Enhancement in bioavailability, Carum carvi (Cc) Frac 1. [2]: Nil
- % Enhancement in bioavailability, Carum carvi + Zingiber officinale, Frac 1. (Cc) [2]: Nil
- % Enhancement in bioavailability, Carum carvi + piperine, Frac 1. (Cc) [2]: Nil
- % Enhancement in bioavailability, Carum carvi (Cc) Extr. [2]: nil
- % Enhancement in bioavailability, Carum carvi + Zingiber officinale, Extr. (Cc) [2]: Nil
- % Enhancement in bioavailability, Carum carvi + piperine, Extr. (Cc) [2]: nil

Molecule: CC(C)NCC(O)COc1cccc2ccccc12 (stereo not shown) [Propranolol]
- % Enhancement in bioavailability, BE from Carum carvi [2]: 68%
- % Enhancement in bioavailability, Carum carvi + Zingiber officinale [2]: 75%
- % Enhancement in bioavailability, Carum carvi + Piperine [2]: 90%
- % Enhancement in bioavailability, BE from Zingiber officinale [2]: 76%
- % Enhancement in bioavailability, Piperine as BE [2]: 84%
